The record followed here is US10154988B2, “Methods and compositions for treating schizophrenia” (The Johns Hopkins University, priority 2012, dated 2018).

The experiment has as its system aged-impaired (AI) rats. Briefly: eight-arm Radial Arm Maze task, one-hour delay (levetiracetam, valproate, combination). The note with it: for average no. of errors ± SEM in retention test: one-hour delay, vehicle 2.00±0.42; for reducing the number of errors in the radial arm maze: levetiracetam on its own. It is filed as in vivo, rat. Here is the method: The effects of levetiracetam on the spatial memory retention of aged-impaired (AI) rats are assessed in a Radial Arm Maze (RAM) behavioral task using vehicle control and five different dosage levels of levetiracetam (1.25 mg/kg/day, 2.5 mg/kg/day, 5 mg/kg/day, 10 mg/kg/day and 20 mg/kg/day). RAM behavioral tasks are preformed on ten AI rats. All six treatment conditions are tested on all ten rats, as described above for the MWM test. The RAM apparatus used consists of eight equidistantly-spaced arms. An elevated maze arm (7 cm width×75 cm length) projects from each facet of an octagonal center platform (30 cm diameter, 51.5 cm height). Clear side walls on the arms are 10 cm high and are angled at 65° to form a trough. A food well (4 cm diameter, 2 cm deep) is located at the distal end of each arm. Froot Loops™ (Kellogg Company) are used as rewards. Blocks constructed of Plexiglas™ (30 cm height×12 cm width) can be positioned to prevent entry to any arm. Numerous extra maze cues surrounding the apparatus are also provided. The AI rats are initially subjected to a pre-training test (Chappell et al. Neuropharmacology 37: 481-487, 1998). The pre-training test consists of a habituation phase (4 days), a training phase on the standard win-shift task (18 days) and another training phase (14 days) in which a brief delay is imposed between presentation of a subset of arms designated by the experimenter (e.g., 5 arms available and 3 arms blocked) and completion of the eight-arm win-shift task (i.e., with all eight arms available). In the habituation phase, rats are familiarized to the maze for an 8-minute session on four consecutive days. In each of these sessions food rewards are scattered on the RAM, initially on the center platform and arms and then progressively confined to the arms. After this habituation phase, a standard training protocol is used, in which a food pellet is located at the end of each arm. Rats receive one trial each day for 18 days. Each daily trial terminates when all eight food pellets have been obtained or when either 16 choices are made or 15 minutes had elapsed. After completion of this training phase, a second training phase is carried out in which the memory demand is increased by imposing a brief delay during the trial. At the beginning of each trial, three arms of the eight-arm maze are blocked. Rats are allowed to obtain food on the five arms to which access is permitted during this initial ‘information phase’ of the trial. Rats are then removed from the maze for 60 seconds, during which time the barriers on the maze are removed, thus allowing access to all eight arms. Rats are then placed back onto the center platform and allowed to obtain the remaining food rewards during this ‘retention test’ phase of the trial. The identity and configuration of the blocked arms varies across trials. The number of “errors” the AI rats make during the retention test phase is tracked. An error occurs in the trial if the rats enter an arm from which food had already been retrieved in the pre-delay component of the trial, or if it re-visits an arm in the post-delay session that has already been visited. After completion of the pre-training test, rats are subjected to trials with more extended delay intervals, i.e., a one-hour delay, between the information phase (presentation with some blocked arms) and the retention test (presentation of all arms). During the delay interval, rats remain off to the side of the maze in the testing room, on carts in their individual home cages. AI rats are pretreated 30-40 minutes before daily trials with a one-time shot of the following six conditions: 1) vehicle control (0.9% saline solution); 2) levetiracetam (1.25 mg/kg/day); 3) levetiracetam (2.5 mg/kg/day); 4) levetiracetam (5 mg/kg/day); 5) levetiracetam (10 mg/kg/day); 6) levetiracetam (20 mg/kg/day); […] Injections are given every other day with intervening washout days. Each AI rat is treated with all six conditions within 23 days of testing. […]

As for `CC[C@@H](C(N)=O)N1CCCC1=O` [levetiracetam, (2S)-2-(2-oxopyrrolidin-1-yl) butanamide], the “average no. of errors ± SEM in retention test” value (5 mg/kg/day i.p., t(9)=2.18, p=0.057) is on record as 0.75±0.32 and the “average no. of errors ± SEM in retention test” value (10 mg/kg/day i.p., t(9)=2.37, p=0.042) amounted to 0.80±0.27. Besides, under “levetiracetam 20 mg/kg”, the “performance of AI rats in the radial maze task” value is recorded as “fails to improve the performance”. The “reducing the number of errors in the radial arm maze” value is reported as “not at 1.25 mg/kg or 2.5 mg/kg” (1.25 mg/kg i.p.), “not at 1.25 mg/kg or 2.5 mg/kg” (2.5 mg/kg i.p.) and “effective in reducing the number of errors” (5-10 mg/kg i.p.).
